# Assay results taken from ChEMBL document CHEMBL5727750, “Heterocyclic compounds as immunomodulators” (2020).
# “And” between values parts separate entries of the source, which are not always exact repeats. Identical values can stand only once.
# Assay: Nuclear Factor of Activated T-Cells (NFAT) Assay: PD-L1 aAPC/CHO-Klcells (Promega) were maintained in F-12 medium with addition of 10% FBS, 200 μg/ml Hygromycin B, 250 μg/ml Geneticin (G418). Jurkat-PD-1-NFAT effector cells (Promega) were cultured in RPMI 1640 medium supplemented with 10% FBS, 100 μg/ml Hygromycin B, 500 μg/ml G418. The culture media of PD-L1 aAPC/CHO-K1 cells were first replaced with assay medium (RPMI1640 medium with 1% FBS). The PD-L1 aAPC/CHO-K1 cells were then added in a white 384-well white clear bottom assay plate (CELLCOAT® Tissue Culture Plates, Greiner Bio-One) at 8000 per well in 10 μL assay medium. Test compounds were prepared by serial dilution in DMSO and 0.8 μL test compounds in DMSO were first transferred to the 384 REMP plate well (Thermofisher) by PlateMate Plus (Thermofisher) followed with addition of 50 μL plating medium. 5 μL compounds in the assay medium were transferred to the cells with 0.4% DMSO in the final assay at 2 μM. After removing the culture media, 10,000 Jurkat-PD-1-NFAT effector cells in 5 μL assay medium was dispensed into each well. The assay plate was incubated at 37° C., 5% CO2 for 24 hours. After the assay plate was equilibrated to room temp for 15 minutes, 20 µL/well of Bio-Glo™ reagent (Promega) were added. After 8 minutes incubation at room temperature, luminescence was read at with Pherastar microplate reader (BMG Labtech). The fold of induction (FOI) was calculated based on the ratio of luminescence normalized to the DMSO wells within each assay plate. The maximum percentage of induction was reported based on the ratio between the highest FOI of each compound and the maximum FOI of control compound within each assay plate. Wells with DMSO were served as the negative controls and wells containing control compound with the highest FOI were used as positive controls. EC50 determination was performed by fitting the curve of percent control activity versus the log of the compound concentration using the GraphPad Prism 6.0 software.
row,Compound,EC50
1,Cc1c(Nc2nc(N)nc3cc(CN4CC[C@@H](O)C4)cnc23)cccc1-c1cccc(-c2nc3cc(CN4CCC(C(=O)O)CC4)cc(C#N)c3o2)c1C,0.01 to 0.1 µM
2,Cc1c(Nc2nc(C(F)F)nc3cc(CN4CC[C@@H](O)C4)cnc23)cccc1-c1cccc(-c2nc3cc(CN4CCC(C)(C(=O)O)CC4)cc(C#N)c3o2)c1C,0.01 to 0.1 µM
3,Cc1nc(Nc2cccc(-c3cccc(-c4nc5cc(CN6CCC(C(=O)O)CC6)cc(C#N)c5o4)c3C)c2C)c2ncc(CNC[C@H](C)O)cc2n1,in the range around 0.055 µM
4,Cc1c(Nc2nc(CO)nc3cc(CN4CC[C@@H](O)C4)cnc23)cccc1-c1cccc(-c2nc3cc(CN4CCC(C(=O)O)CC4)cc(C#N)c3o2)c1C,0.01 to 0.1 µM
5,Cc1c(Nc2nc(C(F)F)nc3cc(CN4CC[C@](C)(O)C4)cnc23)cccc1-c1cccc(-c2nc3cc(CN4CCC(C(=O)O)CC4)cc(C#N)c3o2)c1C,< 0.01 µM
6,Cc1c(Nc2nc(C(F)F)nc3cc(CN4CC[C@@H](O)C4)cnc23)cccc1-c1cccc(-c2nc3cc(CN4CCC(C(=O)N(C)C)CC4)cc(C#N)c3o2)c1C,0.01 to 0.1 µM
7,Cc1nc(Nc2cccc(-c3cccc(-c4nc5cc(CN6CC[C@@H](C(=O)O)C6)cc(C#N)c5o4)c3C)c2C)c2ncc(CN3CC[C@](C)(O)C3)cc2n1,0.01 to 0.1 µM
8,Cc1nc(Nc2cccc(-c3cccc(-c4nc5cc(CN6CC[C@@H](C(=O)O)C6)cc(C#N)c5o4)c3C)c2C)c2ncc(CNC[C@H](C)O)cc2n1,0.01 to 0.1 µM
9,Cc1c(Nc2nc(C(F)F)nc3cc(CN4CC[C@@H](O)C4)cnc23)cccc1-c1cccc(-c2nc3cc(CN4CC[C@@H](C(=O)O)C4)cc(C#N)c3o2)c1C,0.01 µM and 0.1 µM and in the range around 0.055 µM
10,Cc1c(Nc2nc(C(F)F)cc3cc(CN4CC[C@@H](O)C4)cnc23)cccc1-c1cccc(-c2nc3cc(CN4CC[C@@](C)(C(=O)O)C4)cc(C#N)c3o2)c1C,< 0.01 µM
11,Cc1nc(Nc2cccc(-c3cccc(-c4nc5cc(CN6CCC(C(=O)O)CC6)cc(C#N)c5o4)c3C)c2C)c2ncc(CN3CC[C@](C)(O)C3)cc2n1,0.01 to 0.1 µM
12,Cc1c(Nc2nc(C(F)F)nc3cc(CN4CC[C@@H](O)C4)cnc23)cccc1-c1cccc(-c2nc3cc(CN4CC[C@@](C)(C(=O)O)C4)cc(C#N)c3o2)c1C,0.01 µM and 0.1 µM and in the range around 0.055 µM
13,Cc1nc(Nc2cccc(-c3cccc(-c4nc5cc(CN6CC[C@@](C)(C(=O)O)C6)cc(C#N)c5o4)c3C)c2C)c2ncc(CN[C@@H](C)CO)cc2n1,in the range around 0.055 µM
14,Cc1nc(Nc2cccc(-c3cccc(-c4nc5cc(CN6CC[C@@H](C(=O)O)C6)cc(C#N)c5o4)c3C)c2C)c2ncc(CN[C@@H](C)CO)cc2n1,0.01 to 0.1 µM
15,Cc1nc(Nc2cccc(-c3cccc(-c4nc5cc(CN6CCC(C(=O)O)CC6)cc(C#N)c5o4)c3C)c2C)c2ncc(CN3CC[C@@H](O)C3)cc2n1,0.01 to 0.1 µM
16,Cc1c(Nc2nc(C(F)F)nc3cc(CN4CC[C@@H](O)C4)cnc23)cccc1-c1cccc(-c2nc3cc(CN4CC[C@H](C(=O)O)C4)cc(C#N)c3o2)c1C,0.01 to 0.1 µM
17,Cc1nc(Nc2cccc(-c3cccc(-c4nc5cc(CN6CC[C@@](C)(C(=O)O)C6)cc(C#N)c5o4)c3C)c2C)c2ncc(CNC[C@H](C)O)cc2n1,in the range around 0.055 µM
18,CNC(=O)C1CCN(Cc2cc(C#N)c3oc(-c4cccc(-c5cccc(Nc6nc(C(F)F)nc7cc(CN8CC[C@@H](O)C8)cnc67)c5C)c4C)nc3c2)CC1,< 0.01 µM
19,Cc1c(Nc2nc(C3CC3)nc3cc(CN4CC[C@@H](O)C4)cnc23)cccc1-c1cccc(-c2nc3cc(CN4CC[C@@H](C(=O)O)C4)cc(C#N)c3o2)c1C,in the range around 0.055 µM
20,Cc1c(Nc2nc(C(F)F)nc3cc(CN4CC[C@@](C)(O)C4)cnc23)cccc1-c1cccc(-c2nc3cc(CN4CCC(C(=O)O)CC4)cc(C#N)c3o2)c1C,< 0.01 µM
21,Cc1nc(Nc2cccc(-c3cccc(-c4nc5cc(CN6CC[C@@H](C(=O)O)C6)cc(C#N)c5o4)c3C)c2C)c2ncc(CN3CC[C@@](C)(O)C3)cc2n1,0.01 to 0.1 µM
22,Cc1nc(Nc2cccc(-c3cccc(-c4nc5cc(CN6CC[C@@](C)(C(=O)O)C6)cc(C#N)c5o4)c3C)c2C)c2ncc(CN3CC[C@@](C)(O)C3)cc2n1,0.01 to 0.1 µM
23,Cc1c(Nc2nc(C(F)F)nc3cc(CN4CC[C@@H](O)C4)cnc23)cccc1-c1cccc(-c2nc3cc(CN4CC[C@](C)(C(=O)O)C4)cc(C#N)c3o2)c1C,< 0.01 µM
24,Cc1nc(Nc2cccc(-c3cccc(-c4nc5cc(CN6CCC(C(=O)O)CC6)cc(C#N)c5o4)c3C)c2C)c2ncc(CN3CC[C@@](C)(O)C3)cc2n1,0.01 to 0.1 µM
25,Cc1nc(Nc2cccc(-c3cccc(-c4nc5cc(CN6CC[C@@](C)(C(=O)O)C6)cc(C#N)c5o4)c3C)c2C)c2ncc(CN3CC[C@](C)(O)C3)cc2n1,0.01 to 0.1 µM
26,Cc1c(Nc2nc(C(F)F)nc3cc(CN4CC[C@@H](O)C4)cnc23)cccc1-c1cccc(-c2nc3cc(CN4CCC(C(=O)NCCC(=O)O)CC4)cc(C#N)c3o2)c1C,0.01 to 0.1 µM
27,Cc1nc(Nc2cccc(-c3cccc(-c4nc5cc(CN6CC[C@@](C)(C(=O)O)C6)cc(C#N)c5o4)c3C)c2C)c2ncc(CN3CC[C@@H](O)C3)cc2n1,0.01 to 0.1 µM
28,Cc1nc(Nc2cccc(-c3cccc(-c4nc5cc(CN6CC[C@@H](C(=O)O)C6)cc(C#N)c5o4)c3C)c2C)c2ncc(CN3CC[C@@H](O)C3)cc2n1,0.01 to 0.1 µM and < 0.01 µM
29,Cc1nc(Nc2cccc(-c3cccc(-c4nc5cc(CN6CCC(C(=O)O)CC6)cc(C#N)c5o4)c3C)c2C)c2ncc(CN[C@@H](C)CO)cc2n1,in the range around 0.055 µM
30,Cc1c(Nc2nc(C(F)F)nc3cc(CN4CC[C@@H](O)C4)cnc23)cccc1-c1cccc(-c2nc3cc(CN4CCC(C(=O)O)CC4)cc(C#N)c3o2)c1C,in the range around 0.055 µM
